These results are taken from BindingDB's records for patent US11707539 (Tufts College, 2023).

Structures are written as SMILES. “And” between values parts separate entries of the source, which are not always exact repeats. Equal entries are not always repeated. Where a SMILES comes first, the peptide text is derived from it.

What is called IC50 is the point on the concentration scale where inhibition reaches its midpoint.

Common to all, as to experiment: In Vitro Assay Dipeptidyl Peptidase IV. Fibroblast Activation Protein and Prolyl Oligopeptidase
One assay addresses T1, Prolyl endopeptidase FAP (Homo sapiens, UniProt Q12884).
T1 sequence (Q12884 whole entry): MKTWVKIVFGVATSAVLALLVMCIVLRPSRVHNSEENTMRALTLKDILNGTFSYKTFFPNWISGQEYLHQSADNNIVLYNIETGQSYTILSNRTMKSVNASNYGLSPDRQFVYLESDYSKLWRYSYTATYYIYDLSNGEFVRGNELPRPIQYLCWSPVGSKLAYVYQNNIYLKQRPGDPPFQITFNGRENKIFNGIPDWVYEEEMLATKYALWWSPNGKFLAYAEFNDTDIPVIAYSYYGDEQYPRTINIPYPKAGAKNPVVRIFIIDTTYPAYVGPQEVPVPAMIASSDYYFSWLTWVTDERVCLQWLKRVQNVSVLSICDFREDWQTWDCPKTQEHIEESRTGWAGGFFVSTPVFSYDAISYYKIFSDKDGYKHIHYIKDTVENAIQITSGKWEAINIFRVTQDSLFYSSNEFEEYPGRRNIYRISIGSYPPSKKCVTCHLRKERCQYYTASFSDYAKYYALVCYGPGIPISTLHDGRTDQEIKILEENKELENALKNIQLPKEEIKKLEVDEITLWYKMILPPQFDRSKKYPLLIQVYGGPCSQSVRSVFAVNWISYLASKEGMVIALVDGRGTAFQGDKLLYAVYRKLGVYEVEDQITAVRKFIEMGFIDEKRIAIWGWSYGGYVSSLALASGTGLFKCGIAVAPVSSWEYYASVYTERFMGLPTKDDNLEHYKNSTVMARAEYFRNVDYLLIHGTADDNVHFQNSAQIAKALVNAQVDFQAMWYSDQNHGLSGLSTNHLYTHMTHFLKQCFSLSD
As for the experimental part: (§1) The purpose of this assay is to determine the IC50 of various inhibitors against recombinant human dipeptidyl peptidase IV (DPPIV), fibroblast activation protein (FAP) or prolyl oligopeptidase (PREP). The assays are conducted in the following steps:1 Dissolve the compound in DMSO to a final concentration of […]. […] Serial dilute (1:10) the 1 mM compound stocks prepared previously into the appropriate assay buffer (FAP: 50 mM Tris, 140 mM NaCl, pH 7.5/PREP: 25 mM Tris, 0.25 M NaCl, pH 7.5/DPPIV: 25 mM Tris, pH 8.0) to one row of a 96-well plate. 3. […] 4. Dilute the enzymes into their appropriate assay buffers. The final enzyme concentrations should be 0.1, 1.2, and 0.6 nM for DPPIV, FAP and PREP respectively. Add 180 μL to each well needed in columns 2-10. Column 1 (A,B,C) should be prepared with 200 ul of appropriate assay buffer as control. Column 1 (D,E,F,G,H) should be prepared with 20 ul of appropriate assay buffer and 180 ul enzyme as no inhibitor control. 5. Add 20 μL of the compound of interest from the dilution plate prepared in step 2 to columns 2-10 of the assay plate where appropriate. Each sample should be tested in triplicate. Allow this to incubate for 10 minutes at room temperature, shaking the plate for the first two minutes. 6. Add 10 μL of 20× substrate prepared in step 3 to each well and allow this to incubate for 15 minutes at room temperature, shaking the plate for the first two minutes. 7. Read the fluorescence at λex: 380, λem: 460.

A further assay concerns the target Dipeptidyl peptidase 4 (Homo sapiens, UniProt P27487). On the procedure: as §1
The target of another assay is T2, Prolyl endopeptidase (Homo sapiens, UniProt P48147).
T2 sequence (P48147 whole entry): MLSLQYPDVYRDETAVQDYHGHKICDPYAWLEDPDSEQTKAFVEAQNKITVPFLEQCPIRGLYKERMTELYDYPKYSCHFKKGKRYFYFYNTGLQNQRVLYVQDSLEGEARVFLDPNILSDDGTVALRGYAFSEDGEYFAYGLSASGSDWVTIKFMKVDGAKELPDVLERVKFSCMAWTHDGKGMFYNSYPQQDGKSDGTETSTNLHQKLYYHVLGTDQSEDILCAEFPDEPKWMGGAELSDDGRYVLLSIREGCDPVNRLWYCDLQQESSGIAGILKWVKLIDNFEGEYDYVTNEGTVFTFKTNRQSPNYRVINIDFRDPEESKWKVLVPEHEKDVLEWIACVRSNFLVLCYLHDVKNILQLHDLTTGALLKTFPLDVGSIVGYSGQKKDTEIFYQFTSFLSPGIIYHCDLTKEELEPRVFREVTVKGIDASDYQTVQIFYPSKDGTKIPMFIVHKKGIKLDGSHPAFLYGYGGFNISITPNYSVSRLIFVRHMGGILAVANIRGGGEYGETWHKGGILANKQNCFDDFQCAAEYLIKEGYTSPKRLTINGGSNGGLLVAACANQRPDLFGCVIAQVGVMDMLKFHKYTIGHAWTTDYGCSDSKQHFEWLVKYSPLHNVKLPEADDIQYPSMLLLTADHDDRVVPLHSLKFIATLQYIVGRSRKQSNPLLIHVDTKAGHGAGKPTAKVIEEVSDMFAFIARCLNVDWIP
As for the experimental part: as §1

Sequence of Dipeptidyl peptidase 4 (P27487 whole entry): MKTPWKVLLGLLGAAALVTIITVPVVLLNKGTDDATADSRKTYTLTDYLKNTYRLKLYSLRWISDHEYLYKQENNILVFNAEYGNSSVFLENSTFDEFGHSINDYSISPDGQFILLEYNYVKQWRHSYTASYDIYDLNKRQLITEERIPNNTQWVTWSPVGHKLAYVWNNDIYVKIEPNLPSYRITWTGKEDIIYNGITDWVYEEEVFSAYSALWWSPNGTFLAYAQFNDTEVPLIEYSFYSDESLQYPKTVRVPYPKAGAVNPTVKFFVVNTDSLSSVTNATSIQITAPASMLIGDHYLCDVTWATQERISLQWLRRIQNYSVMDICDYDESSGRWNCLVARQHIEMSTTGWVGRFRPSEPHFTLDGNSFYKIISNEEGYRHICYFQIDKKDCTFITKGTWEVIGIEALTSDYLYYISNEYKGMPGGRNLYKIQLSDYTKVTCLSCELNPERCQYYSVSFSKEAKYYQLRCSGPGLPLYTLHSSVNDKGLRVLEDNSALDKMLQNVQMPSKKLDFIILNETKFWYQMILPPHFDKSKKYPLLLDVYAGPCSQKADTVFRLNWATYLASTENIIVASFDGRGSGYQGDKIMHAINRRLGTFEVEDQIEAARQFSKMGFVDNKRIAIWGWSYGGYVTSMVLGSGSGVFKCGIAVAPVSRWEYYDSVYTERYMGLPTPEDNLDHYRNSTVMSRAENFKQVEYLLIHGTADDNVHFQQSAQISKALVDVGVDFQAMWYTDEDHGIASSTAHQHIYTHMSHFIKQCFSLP

With `N[C@@H](CCCCNC(=O)CCCNC(=O)CN1CCN(CC(=O)O)CCN(CC(=O)O)CCN(CC(=O)O)CC1)C(=O)N1CCC[C@H]1B(O)O` [US11707539, Compound 6551], on Prolyl endopeptidase FAP, the IC50 was 2.6 nM and 2 nM.

With `CC(C)[C@H](NC(=O)CNC(=O)CNC(=O)CN1CCN(CC(=O)O)CCN(CC(=O)O)CCN(CC(=O)O)CC1)C(=O)N[C@H](C)C(=O)N1CCC[C@H]1B(O)O` [US11707539, Compound 6522] (HELM PEPTIDE1{[O=C(O)CN1CCN(CC(=O)O)CCN(CC(=O)[*:2])CCN(CC(=O)O)CC1].G.G.V.[dA].[OB(O)[C@@H]1CCCN1[*:1]]}$$$$V2.0), the IC50 at Dipeptidyl peptidase 4 is over 100000 nM; at Prolyl endopeptidase it was 13000 nM; against Prolyl endopeptidase FAP it was 3.5 nM and 12 nM.
